Results on 1 molecule are retold here after US9737583B2, “Composition for prevention or treatment of acute renal failure including herbal extract or fraction thereof as active ingredient” (KOREA INSTITUTE OF ORIENTAL MEDICINE, priority 2012, dated 2017).

Structures are written as SMILES.

Holding throughout (assay type): cell-based
The subject of assay [1] is renal cells. Nature of the assay: MTT assay, cell viability of renal cells with or without cisplatin. The protocol:
To measure cell viability of renal cells by the Amomi Rotundus Fructus extract and the fraction thereof, MTT assay was performed. First, renal cells were seeded at a density of 1×10^4 cells per well of 96-well plate. After 24 hours, the cells were treated with each 50 μg thereof which was prepared by dilution at three final concentrations (50, 100, 200 μg/ml). After 2 hours, cisplatin was treated at a final concentration of 25 μg/ml, and cells were cultured for 24 hours. After 24 hours, 10 μl of the assay reagent of EZ-Cytox Cell Viability assay kit was added to each well using a Micro multi Pipette, taking care to introduce no bubbles, and reaction was allowed for 4 hours under basic culture conditions. Absorbance at 450 nm was measured. p<0.005 was considered statistically significant.

Assay [2] deals with renal cells. As to the kind of experiment: Measurement of ROS generation (DCF-DA). The note with it: single treatment, after 24 hours; based on 100% ROS generation of the control group; FIGS. 4a to 4e. The protocol:
In order to measure antioxidant effect of the Amomi Rotundus Fructus extract and the fraction thereof in renal cells, ROS generation test was performed. First, renal cells were seeded at a density of 1×10^5 cells per well of 96-well plate. After 24 hours, the cells were pre-treated with 100 μg of the Amomi Rotundus Fructus extract. 2 hours after treatment, cisplatin was treated at a final concentration of 25 μg/ml, followed by culture for 24 hours. DCF-DA dissolved in PBS was treated in the dark according to the treatment concentration of DCF-DA and the reaction time which were determined by historical data and preliminary experiment, and reaction was allowed for 5 hours under basic culture conditions. At the time point of 0, 4, 8, 12, 16, 20, 24 hr, end-point fluorescence wavelength at Ex: 485 nm and Em: 528 nm was measured at S=50.

Assay [3] concerns renal cells. Nature of the assay: Measurement of GSH content. Particulars: single treatment of cisplatin, culture 24 hours; FIGS. 5a to 5e. As to the method:
Because GSH level is known as an index to evaluate a cell-protecting effect on drug-induced cellular injury, GSH level was measured to examine the cell-protecting effect of the Amomi Rotundus Fructus extract or the fraction thereof against cisplatin. The GSH levels were determined by monochlorobimane, and experiments for measuring GSH content were performed using the kidney tissues with reference to the conventional method of Fernandez-Checa and Kaplowitz. The number of cells, in which GSH is detectable, was determined by historical data and preliminary experiment, and 2×10^6 cells were seeded to each well of culture plate. After culture for 24 hours, the dilution fold of the final concentration of the drug determined as an active drug was considered and calculated, based on the results of MTT Assay and crystal violet Assay. […] Centrifugation was carried out at 10,000 rpm for 15 minutes, and then the supernatant was collected and used for BCA protein quantification. […] End-point fluorescence wavelength at Ex: 360 nm and Em: 460 nm was measured at S=70. Data of the experimental results were analyzed using Microsoft Excel program, and post-test analysis using Bonferroni multiple comparison test was performed to investigate the differences between the groups. p<0.001 was considered statistically significant.

The test system of the next assay is p53. Nature of the assay: Examination of p53 expression pattern (western blot). The note with it: single treatment of cisplatin; FIG. 6. The protocol:
Cells treated with Amomi Rotundus Fructus extract and/or cisplatin were harvested, and RIPA buffer was added thereto, followed by sonication for cell lysis. Centrifugation was performed at 15,000 rpm for 15 minutes, and the supernatant was obtained, and subjected to protein quantification by BCA assay. The protein was loaded at an amount of 20 μg/10 μl in each well, and 12% SDS-PAGE polyacrylamide gel electrophoresis was performed, and transferred to a nitrocellulose membrane. The membrane was blocked with 5% Skim milk-TBST, and then treated with primary antibody (anti-p53/dilution-1:300). p53 was detected with HRP conjugated anti-mouse IgG (dilution-1:5000) and immune reaction was visualized by ECL. The measurement results are shown as Mean±S.E.M. (standard error of mean) in FIG. 6. Data of the experimental results were analyzed using Microsoft Excel program, and post-test analysis using Bonferroni multiple comparison test was performed to investigate the differences between the groups. p<0.001 was considered statistically significant, and expressed as *; p<0.001 to compare with cisplatin.
On the technique in general: A western blot detects proteins with antibodies after separation by electrophoresis.

On to `N.N.[Cl][Pt][Cl]` [cisplatin, cis-diaminedichloroplatinum II], for which, in the assay with renal cells [1] (pre-treatment 50, 100, 200 μg/ml, cisplatin 25 μg/ml after 2 hours, culture 24 hours, based on 100% cell viability of the control group, FIGS. 2a to 2e), the cell viability result is given as “remarkably reduced”. The cell activity with renal cells [1] (single treatment, based on 100% cell activity of the control group, FIGS. 3a to 3e) is at most 40%. In addition, the ROS generation in the assay on renal cells [2] is at least 170%. In the assay on renal cells [3], the GSH content result was “reduced”. In addition, the p53 expression level entry in the assay on p53 is on record as “remarkably increased”.
